Assay results from a melting point compilation (Tetko et al.; mined from patent text by program, amines drawn as free bases though some values may be those of a salt).

melting point	Compound
180 to 181 °C	O=CC(=O)c1ccc(OCc2ccccc2)c(CO)c1
180 to 181 °C	O=C(N[C@H](Cc1ccc(C(F)(F)F)cc1)[C@@H](O)c1ccc(F)cc1)c1ccc2c(c1)OCO2 (racemic)
120 to 130 °C	Cc1cc(-c2cccc(NC(=O)N[C@@H]3c4cc(C#N)ccc4OC(C)(C)[C@H]3O)c2)nn1C
116 to 117 °C	O=C1C(=Cc2ccoc2)CCc2cc(OCCn3ccnc3)ccc21
140 to 141 °C	O=C(NCCO)c1cccc(-c2ccc3[nH]cc(-c4ccc(Cl)cc4Cl)c3c2)c1
145 to 147 °C	CC(S)C(O)(Cn1cncn1)c1ccc(F)cc1F (stereo unspecified)
70 to 71 °C	COC1=C(OC)C(=O)C(CCCCCCCCCCCCCCCC(=O)O)=C(C)C1=O
205 to 207 °C	CSC(C#N)=C1CCN(c2ccc(N3C[C@H](CNC(C)=O)OC3=O)cc2F)CC1
72 to 75 °C	Cc1cc(Cn2cnc3c2CC(C(=O)O)N(C(=O)C(c2ccccc2)c2ccccc2)C3)ccc1N(C)C (stereo unspecified)
92 to 94 °C	CCOC(=O)C1=C(C)NC(C)=C(C(=O)OCC)C1c1ccccc1/C=C(\CC)C(=O)OCC
101 to 103 °C	COc1cc(C(=O)C(=O)N2C3CCCC2C(=O)N(CCCCc2ccccc2)C3=O)cc(OC)c1OC
145 °C	CCCCCCCCCCS(=O)(=O)NC(=O)c1cnc(C(=O)O)c(OC)c1
231 to 232 °C	CC(C)C(NC(=O)OCc1ccccc1)C(=O)NC(Cc1ccccc1)C(O)C(O)C(Cc1ccccc1)NC(=O)C(NC(=O)OCc1ccccc1)C(C)C (stereo unspecified)
50 to 52 °C	Cc1ccccc1CCOS(N)(=O)=O
174 to 176 °C	O=C(CCCN1CCOCC1)c1ccc2c(c1)C(=O)c1cc(C(=O)CCCN3CCOCC3)ccc1-2
238 to 244 °C	Cc1[nH]c(C(=O)NCCc2ccccn2)c(C)c1-c1nc2ccc(C(=O)c3ccccc3)cc2[nH]1
137 to 138 °C	CN1CC2(CCN(Cc3ccccc3)CC2)OC1=O
235 to 237 °C	CC1COCc2nc3c(N)nc4cc(CCC(=O)N(C)C)ccc4c3n21 (stereo unspecified)
89 to 91 °C	COC(=O)c1ccc(C=CC(=O)c2ccc3c(c2)C(C)(C)CCC3(C)C)cc1
120 to 123 °C	Cc1ccc(NC(=N)c2ccncc2)cc1
92 to 95 °C	Cc1nc[nH]c1CSCCN=C(NC#N)NCCSCc1[nH]cnc1C
82 to 85 °C	C(=CCON(Cc1ccccc1)Cc1ccccc1)CON(Cc1ccccc1)Cc1ccccc1
71 °C	O=C(CCCCCN1CCC(c2cccc(C(F)(F)F)c2)CC1)N1Cc2ccccc2C1

melting point	Compound
78 °C	CCCCN1CCC(c2c[nH]c3ccc(NS(C)(=O)=O)cc23)CC1
91 to 92 °C	C#Cc1ccc2ccc(OC(OC)C(=O)NC(C)(C)COC)cc2c1 (stereo unspecified)
> 300 °C	CCn1c(=O)[nH]c(=O)c2nc(-c3ccc(/C=C/C(=O)O)cc3)[nH]c21
158 to 159 °C	Cc1oc(-c2ccccc2)nc1COc1ccc(CCC2OC(=O)NC2=O)cc1 (stereo unspecified)
167 °C	COC(=O)C1=C(N)NC(C)=C([N+](=O)[O-])C1c1ccccc1OCCCCCN1CCN(c2ccccc2OC)CC1 (stereo unspecified)
130 °C	CCc1ccc(Cn2cc(-c3ccc(OC)cc3)ccc2=O)cn1
127 to 129 °C	CC(=O)c1ccccc1C(O)=S
272 to 273 °C	O=C1c2ccccc2C(=O)N1CC(=O)N1c2ccccc2N(c2ccccc2)C(=O)C2CCCC21 (stereo unspecified)
143 to 144 °C	O=C1c2ccc([N+](=O)[O-])cc2C(=O)N1C1CCN(Cc2cccnc2)CC1
> 300 °C	O=c1ncc2c3c(ccc2[nH]1)OCO3
282 °C	CC(O)Cc1ccc(-c2ccc3cc(C(=O)O)ccc3c2)cc1C12CC3CC(CC(C3)C1)C2 (stereo unspecified)
106 °C	CCN(CC)C(=O)CCc1nc(-c2cccs2)nc2ccccc12
119 to 120 °C	CSc1nc(CO)c(CO)n1C
> 290 °C	CCNC(=N)N(C(=N)NCC)c1cc(C(C)(C)C)c2c(c1)C(C)(C)CO2
66 °C	COc1ccc(N=C(C#Cc2ccccc2)N2CCCN(Cc3ccc(C)cc3)CC2)cc1
188 to 190 °C	O=C(c1ccc(OCc2ccccc2)cc1)c1ccc(OCc2ccccc2)cc1
246 to 247 °C	Oc1c2c(nn1-c1nc3ccc(F)cc3s1)CCc1ccccc1-2
88 to 89 °C	COc1cccnc1Oc1cccc(C#N)c1
189 to 190 °C	CCc1cc(Oc2ccc(S(C)(=O)=O)nc2)cc2cc(C3=NCC(CC(=O)NC)S3)[nH]c12 (stereo unspecified)
132 to 134 °C	COc1nc(C)c(C)cc1NC(=O)N1CCN(C(c2ccccc2)c2ccccc2)CC1
152 to 153 °C	[N-]=[N+]=NCC1Cc2c[nH]c3cccc(c23)C(=O)N1 (stereo unspecified)
190 to 192 °C	CC(=O)Nc1ccc(C#N)c(F)c1
106 °C	CCCCCCC#Cc1ccc(C=C(C(=O)O)C(=O)O)s1

melting point	Compound
97.5 to 98 °C	Clc1cc2cc[nH]c2c(Cl)c1Cl
192 °C	Nc1c(-c2ccccc2)oc2c(CO)cccc2c1=O
224 to 226 °C	O=C(Nc1ccc(C(=O)N2CCCc3ccccc32)cc1)c1ccc(CO)cc1
235 to 239 °C	COc1ccc2c(c1C)CCc1ccc(-c3cccnc3)cc1C21N=C(N)N(C)C1=O (stereo unspecified)
240 to 241 °C	CCC(=O)N1CCC(NC(=O)Nc2ccc([N+](=O)[O-])cc2)CC1
122 °C	C=CCOc1cc(O)c2c(=O)cc(-c3ccc(OC)c(OCC=C)c3)oc2c1
80 to 82 °C	COc1cc(OC)cc(N2CCN(C(=O)N(C)c3nc(C)c(C)nc3OC)CC2)c1
220 to 222 °C	O=C1OC(=O)c2cc(C#Cc3cccc4ccccc34)ccc21
175 to 176 °C	O=C(O)CCc1cc(OCCCc2cn(-c3ccc(C(F)(F)F)cn3)nc2-c2ccccc2)nn1-c1ccccc1
143 to 146 °C	CON1C(C)(C)CC(OC(=O)C2=C(c3ccccc3)C(c3ccccc3)OC2=O)CC1(C)C (stereo unspecified)
191 to 193 °C	COc1cccc(OC)c1C(=O)Nc1nc[nH]n1
165 to 167 °C	O=C(O)C(Cc1ccc2ccccc2c1)NC(=O)C(CS)C(F)(F)F (stereo unspecified)
158 to 161 °C	Cn1cc(CCN2CCC3(CC2)CNC(=O)O3)c2ccccc21
93 to 94 °C	COc1ccc(CC(=O)O)cc1C(C)(C)C
120 to 124 °C	CCOC(=O)C(C)(C)C(O)C(c1ccc(Cl)cc1)n1ccnc1 (stereo unspecified)
72 to 73 °C	c1ccc(-c2ccnc3ccnn23)cc1
87 to 89 °C	COC(=O)[C@H]1C=C(C2CCCCC2)OC(=O)[C@H]1Cc1ccccc1
184 to 185 °C	CON=Cc1ccc2c(c1)ncn2-c1cccc(-c2cccs2)c1
90 to 92 °C	COc1ccc([C@H]2SC(c3ccccc3)=C(C)N(CCN(C)C)C(=O)[C@H]2OC(C)=O)cc1
203 to 205 °C	CCOCc1nc2c(N)nc(C)c(C)c2n1NCCCNC(=O)NC(C)C
112 to 113 °C	Cc1c(-c2ccccc2)oc2c(CCl)cccc2c1=O
124 to 125 °C	CN1CCN(C(=O)/C=C/c2occc(=O)c2OCC(=O)OC(C)(C)C)CC1
129 to 131 °C	COc1ccc(-c2ccc(C(C)=O)cc2[N+](=O)[O-])c(OC)c1

melting point	Compound
168 to 170 °C	CC(=O)OC(C)OC(=O)[C@H](Cc1ccc(-c2c(C)n(C)c(=O)n(C)c2=O)cc1)NC(=O)c1c(Cl)cccc1Cl (stereo partly specified)
173 °C	CN(CCOc1ccc(NC(=O)c2cccc3c(=O)c4ccccc4[nH]c23)cc1)Cc1ccccc1
129 to 130 °C	Cc1oc(-c2ccccc2)nc1COc1ccc2c(-c3ccccc3)c(CCl)oc2c1
137 to 138 °C	CCCC1(CC(=O)OCC)OCCc2c1[nH]c1c(C)cc(F)c(Br)c21 (stereo unspecified)
46 °C	COC(=S)c1cc(C)cc(C)c1
174 to 176 °C	O=C1NCCCN1C1CCN(CC[C@H](c2ccc(Cl)c(Cl)c2)[C@@H](O)c2ccnn2-c2ccccc2)CC1 (racemic)
126 to 127 °C	CN(c1ccc(Cl)cc1)S(=O)(=O)c1cccc(C(=O)Nc2ccc(Br)cc2F)c1
140 °C	Clc1cc(Cl)nc(N2CCOCC2)n1
105 to 107 °C	CN(C)S(=O)(=O)CCc1ccc2[nH]cc(CC#N)c2c1
93 to 95 °C	CCCCN(CCCC)CCCNS(=O)(=O)c1ccc2c(c1)C(=O)c1cc(S(=O)(=O)NCCCN(CCCC)CCCC)ccc1C2=O
143 to 145 °C	COc1cc(OC)nc(Oc2cccc3c2C(=O)OC3O)n1 (stereo unspecified)
124 to 127 °C	O=C(Nc1cccc2ccccc12)N(CCCN1CCC(Cc2ccccc2)CC1)c1ccccc1
103 to 104 °C	CC(C(=O)c1ccc(Cl)c(Cl)c1)C(O)C(=O)O (stereo unspecified)
189 to 190 °C	O=c1c(CCCCCc2ccncc2)cc2cccnc2n1-c1cccc([N+](=O)[O-])c1
259 to 261 °C	O=C(CC(=O)C(F)(F)F)Nc1cc(-c2cccs2)n[nH]1
140 to 142 °C	CCCCCCCCCCCCCCOc1ccc(NC(=O)c2cccc(CBr)c2)cc1
134 to 136 °C	CCCCCCc1c(CCCC)nc2ncnn2c1N
122 to 125 °C	CC(=O)CCc1cccc(C(N)=O)c1
182 to 184 °C	COc1ccc(N2CCN(c3c(C)c(C)c4c(c3C)C(O)(c3ccc(-c5ccccc5)cc3)C(C)(C)O4)CC2)cc1 (stereo unspecified)
48 to 51 °C	Cc1c(-c2ccccc2)c(N2CC[C@H](N(C)C)C2)c2oc(N3CC(CO)C3)nc2c1C#N
92 to 96 °C	CCOC(=O)CNC(=O)C1(N(C(=O)c2ccc(N)cc2)N2CCCCC2)CCCCC1

Compound	melting point
C=CCN1C(=O)CSC1=NOC(=O)NC	108 to 110 °C
O=C1c2c(Cl)cccc2-n2cnc(-c3noc(CN4CCCCC4)n3)c2[C@@H]2CCN12	177 to 179 °C
CC(C)c1c(Sc2cccc(Cl)c2)nc(COC(N)=O)n1C	145 to 146 °C
CO[C@]12C[C@@H](CN3CCC(O)(c4cccc(C(F)(F)F)c4)CC3)CN(C)[C@@H]1Cc1c[nH]c3cccc2c13	135 to 140 °C
CC1CN(c2ccc(N)cc2)CC(C)N1 (stereo unspecified)	124 to 125 °C
COC(=O)c1[nH]c(=O)n(C(=O)NCCCN2CCC(C(=O)OC)(c3ccccc3)CC2)c1-c1ccc(F)c(F)c1	134 to 136 °C
